Laboratory results published in patent publication US20150038545A1, “HYDROXYPHENYL PYRROLE COMPOUNDS CONTAINING AN HYDROXAMIC ACID AS HDAC INHIBITORS AND MEDICINAL APPLICATIONS THEREOF” (UNIVERSIDAD DEL PAÍS VASCO, priority 2011, published 2015).

Assays:
[1] = target: T1, Human HDAC5 (Homo sapiens, UniProt Q9UQL6); assay: In vitro HDAC5 inhibition, fluorogenic peptide assay; assay type: biochemical; settings: for IC50: read-out: IC50 (nM) of enzyme activity HDAC5
T1 construct: Full length with Nterminal GST tag, MW=150 kDa; GST (N); purchased BioMol, Hamburg, Germany; host or cells: Sf9 cells, baculovirus
Procedure: All HDAC assays were performed using acetylated AMC-labeled peptide substrate: • Substrate for isoforms HDAC1, 2, 3, 4, 5, 6, 7, 9, 10, 11 and HeLa nuclear extract assays: Acetylated fluorogenic peptide from p53 residues 379-382 (RHKKAc) (BioMol. Cat. # KI-104). • Substrate for HDAC8 assays: Acetylated fluorogenic peptide from p53 residues 379-382 (RHKAcKAc) (BioMol. Cat. # KI-178).
Enzymes: • HDAC1 assay: 75 nM Human HDAC1 (GenBank Accession No. NM_004964): Full length with C-terminal GST tag, MW=79.9 kDa, expressed by baculovirus expression system in Sf9 cells (BioMol. Cat. # SE-456). • HDAC2 assay: 5 nM Human HDAC2 (GenBank Accession No. Q92769): Full length with C-terminal His tag, MW=60 kDa, expressed by baculovirus expression system in Sf9 cells (BioMol. Cat. # SE-500). • HDAC3 assay: 2.3 nM Human HDAC3/NcoR2 (GenBank Accession No. NM_003883 for HDAC3, GenBank Accession No.NM_006312 for NcoR2): Complex of human HDAC3, full length with C-terminal His tag, MW=49.7 kDa, and human NCOR2, N-terminal GST tag, MW=39 kDa, co-expressed in baculovirus expression system (BioMol. Cat. # SE-507). • HDAC4 assay: 266 nM Human HDAC4 (GenBank Accession No. NM_006037): Amino acids 627-1085 with N-terminal GST tag, MW=75.2 kDa, expressed in baculovirus expression system (BioMol, Hamburg, Germany). • HDAC5 assay: 588 nM Human HDAC5 (GenBank Accession No. NM_001015053): Full length with Nterminal GST tag, MW=150 kDa, expressed by baculovirus expression system in Sf9 cells (BioMol, Hamburg, Germany). • HDAC6 assay: 13 nM Human HDAC6 (GenBank Accession No. BC069243): Full length with N-terminal GST tag, MW=159 kDa, expressed by baculovirus expression system in Sf9 cells (BioMol. Cat. # SE-508). • HDAC7 assay: 962 nM Human HDAC7 (GenBank Accession No. AY302468): Amino acids 518-end with N-terminal GST tag, MW=78 kDa, expressed in baculovirus expression system (BioMol, Hamburg, Germany). • HDAC8 assay: 119 nM Human HDAC8 (GenBank Accession No. NM018486): Full length, MW=42 kDa, expressed in an E. coli expression system (BioMol. […]
The reactions were carried out in a 96-well microplate for fluorometry in a 50 μl reaction volume. […] The reaction was allowed to develop for 45 minutes at 30° C. with 5% CO2; then the fluorescent signal was measured with an excitation wavelength at 360 nm and an emission wavelength at 460 nm in a microplate-reading fluorometer (GeminiXS; Molecular Devices, Sunnyvale, Calif.). […] IC50 was calculated by fitting the experimental data to a dose-response curve. […]

[2] = system: Hep3B; assay: Cancer cell growth inhibition (CellTiter-Glo), Hep3B; assay type: cell-based, Human; settings: Homo sapiens, Liver Cancer, 72 h treatment
Procedure: (§1) Cell culture-based assays were used to evaluate the ability of compounds of the invention to inhibit cancer cell growth.
(§2) Cells were obtained from the American Type Culture Collection (ATCC). Cells were cultured at 37° C. with 5% CO2 in the appropriate growth medium (see table below), and harvested respectively during the logarithmic growth period and counted with hemocytometer. The cell viability was examined by trypan blue exclusion. Cell concentrations were adjusted to 5.56×10^4 cells/ml with respective medium.
(§3) Stock solutions of test compounds and positive drugs Doxorubicin (Zhejiang, Haizheng, China), Cisplatin (Nanjing Zhiyao, China) and Mitomycin (Zhejiang, Haizheng, China) were prepared in dimethyl sulphoxide (DMSO) or PBS at 20 mM.
(§4) In order to determine the IC50 for each compound, experiments were carried out in 96-well plates and the cell lines seeded at a density of 5,000 cells/well. […] All treatments were performed in triplicate. 10 μl of drug solution was added to each well and incubated for 72 hours. At the end of the incubation, 100 μl of the CellTiter-Glo Reagent were added to each well and the contents were mixed for 2 munites on an orbital shaker to induce cell lysis. The plate was incubated at room temperature for 10 minutes to stabilize luminiscent signal, and luminiscent was recorded. […] In order to calculate IC50 values, dose-responsive curves were fitted using nonlinear regression model with a sigmoidal dose response.

[3] = system: BT474; assay: Cancer cell growth inhibition (CellTiter-Glo), BT474; assay type: cell-based; settings: Homo sapiens, BT-474; Breast Cancer, BT474, 72 h treatment
Procedure: as §1, §2, §3, §4

T1 sequence (Q9UQL6 1-1123 isoform Q9UQL6-3): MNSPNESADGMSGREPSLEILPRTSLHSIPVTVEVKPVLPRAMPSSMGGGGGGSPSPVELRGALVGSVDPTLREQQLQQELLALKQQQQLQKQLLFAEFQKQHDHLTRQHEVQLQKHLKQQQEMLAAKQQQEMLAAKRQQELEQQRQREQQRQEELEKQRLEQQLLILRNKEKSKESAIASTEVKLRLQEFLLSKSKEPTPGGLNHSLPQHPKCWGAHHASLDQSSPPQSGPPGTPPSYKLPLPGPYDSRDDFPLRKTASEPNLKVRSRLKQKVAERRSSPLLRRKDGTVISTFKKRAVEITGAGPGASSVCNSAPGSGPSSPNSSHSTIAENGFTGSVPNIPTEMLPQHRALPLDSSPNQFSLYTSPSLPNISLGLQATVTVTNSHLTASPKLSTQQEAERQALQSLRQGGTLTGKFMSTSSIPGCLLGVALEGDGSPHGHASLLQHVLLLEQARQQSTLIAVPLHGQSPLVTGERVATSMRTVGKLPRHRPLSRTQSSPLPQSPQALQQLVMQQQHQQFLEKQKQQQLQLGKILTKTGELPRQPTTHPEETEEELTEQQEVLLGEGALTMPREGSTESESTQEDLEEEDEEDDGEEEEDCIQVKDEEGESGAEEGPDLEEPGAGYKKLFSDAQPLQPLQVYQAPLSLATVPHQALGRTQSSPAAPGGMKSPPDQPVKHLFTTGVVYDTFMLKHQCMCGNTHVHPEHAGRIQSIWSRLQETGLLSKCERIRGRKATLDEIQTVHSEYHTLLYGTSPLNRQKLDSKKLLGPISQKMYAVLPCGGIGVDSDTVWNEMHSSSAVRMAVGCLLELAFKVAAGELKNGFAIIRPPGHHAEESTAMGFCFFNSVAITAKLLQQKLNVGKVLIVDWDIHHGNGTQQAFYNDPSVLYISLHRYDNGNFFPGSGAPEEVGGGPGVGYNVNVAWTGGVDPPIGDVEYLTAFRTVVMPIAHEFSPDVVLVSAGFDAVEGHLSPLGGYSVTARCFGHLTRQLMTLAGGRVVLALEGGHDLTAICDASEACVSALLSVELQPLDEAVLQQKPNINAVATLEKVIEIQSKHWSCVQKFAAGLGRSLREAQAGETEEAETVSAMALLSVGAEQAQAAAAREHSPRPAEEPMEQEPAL

SMILES | Selectivity against HDAC6 (IC50 HDACx/IC50 HDAC6) HDAC5 ([1]; IC50 HDAC5/IC50 HDAC6) | IC50 [1] [nM] | IC50 [2] [µM] | IC50 [3] [µM]
COc1ccc(-c2cc(-c3ccccc3)[nH]c2C(=O)NCCCCCC(=O)NO)cc1 [Compound A, N-[6-(hydroxyamino)-6-oxohexyl]-3-(4-methoxyphenyl)-5-phenyl-1H-pyrrole-2-carboxamide, reference compound] | 32.7 | 655 |  | 
O=C(CCCCCNC(=O)c1[nH]c(-c2ccc(O)cc2)cc1-c1ccsc1)NO [Example 6, N-(5-(hydroxycarbamoyl)pentyl)-5-(4-hydroxyphenyl)-3-(3-thienyl)-1H-pyrrole-2-carboxamide] |  | 43 | 0.89 | 1.02
O=C(CCCCCNC(=O)c1[nH]c(-c2ccccc2)cc1-c1ccc(O)cc1)NO [Example 1, N-(6-(hydroxyamino)-6-oxohexyl)-3-(4-hydroxyphenyl)-5-phenyl-1H-pyrrole-2-carboxamide] |  |  | 1.61 | 2.71
O=C(CCCCCNC(=O)c1[nH]c(-c2ccc(O)cc2)cc1-c1ccccc1)NO [Example 2, N-(6-(hydroxyamino)-6-oxohexyl)-5-(4-hydroxyphenyl)-3-phenyl-1H-pyrrole-2-carboxamide] |  |  | 1.6 | 3.49
O=C(CCCCCNC(=O)c1[nH]c(-c2ccc(O)cc2)cc1-c1ccoc1)NO [Example 5, 3-(3-furyl)-N-(5-(hydroxycarbamoyl)pentyl)-5-(4-hydroxy-phenyl)-1H-pyrrole-2-carboxamide] |  | 14 | 1.01 | 0.66
